Test results: ChEMBL document CHEMBL2176866, “Progress in the development and application of small molecule inhibitors of bromodomain-acetyl-lysine interactions” (J Med Chem, 2012)

What was measured:
[1] = AUC (infinity) in mouse; assay type: ADME, organism-based; design: time infinity; conditions: plasma
[2] = Half life in mouse; assay type: ADME, organism-based; conditions: in vivo

| SMILES | AUC(0-inf) [1] [µM·h] | half-life [2] [h] |
| --- | --- | --- |
| COc1cc2c(cc1-c1c(C)noc1C)ncc1[nH]c(=O)n([C@H](C)c3ccccn3)c12 | 680 | 7.2 |
| CCNC(=O)C[C@@H]1N=C(c2ccc(Cl)cc2)c2cc(OC)ccc2-n2c(C)nnc21 [MOLIBRESIB] | 40 | 1.6 |
